The values below come from article PMC8389922, “First-in-Class Cyclic Temporin L Analogue: Design, Synthesis, and Antimicrobial Assessment” (Journal of Medicinal Chemistry, 2021).

Converted amounts (≈) assume the structure as drawn. Bridge positions count the residues as written; N and C are the ends. Square brackets hold non-standard residues; d marks the D form. Triazole bridges read from a SMILES are 1,4-linked. Peptide text beside a SMILES is read from it. dLys(N3) = [N-]=[N+]=NCCCC[C@@H](N)C(=O)O; Lys(N3) = [N-]=[N+]=NCCCC[C@H](N)C(=O)O; dPra = C#CC[C@@H](N)C(=O)O; Pra = C#CC[C@H](N)C(=O)O

The subject of test [1] is A. baumannii ATCC 19606. In kind it is cell-based, Acinetobacter baumannii. The protocol: (§1) The antimicrobial activity of peptides 9–26 was assessed against a range of reference bacterial strains such as S. aureus ATCC 25923, Staphylococcus epidermidis ATCC 12228, Bacillus megaterium Bm11, E. coli ATCC 25922, P. aeruginosa ATCC 27853, and A. baumannii ATCC 19606 by the broth microdilution assay to determine the minimal growth inhibitory concentration (MIC, Table 1).[59] First, we evaluated the effects produced by the lactam bridge between Lys and Glu residues placed at different positions along the peptide sequence of reference 9. […] When the i,i+7 cyclization strategy was applied (20–23), a dramatic decrease of bacterial inhibition activity was observed. Specifically, the peptides 20, 22, and 23 only affected the microbial growth of the Gram-positive B. megaterium Bm11, at 12.5 μM. […] Peptide 25, which differs from 9 by the presence of an olefin bridge rather than lactam one, dramatically lost the activity (MIC > 100 μM) vs both Gram-positive and Gram-negative strains.
(§2) The determination of MICs was conducted as previously reported.[61] Aliquots of 50 μL of bacterial culture appropriately diluted were added to each well of a 96-well plate to reach a final cell density of 1 × 10^6 CFU/mL and a final peptide concentration ranging from 100 to 0.78 μM (final volume 100 μL).

Test [2] relates to S. epidermidis ATCC 12228. In kind it is cell-based, Staphylococcus epidermidis. The protocol:
as §1, §2

Test [3] concerns E. coli ATCC 25922. The format is cell-based, Escherichia coli. The protocol:
as §1, §2

Test [4] concerns S. aureus ATCC 25923. In kind it is cell-based, Staphylococcus aureus. The protocol:
as §1, §2

For test [5], the system named is B. megaterium Bm11. In kind it is cell-based, Bacillus megaterium. The protocol: as §1, §2
Test [6] concerns P. aeruginosa ATCC 27853. The format is cell-based, Pseudomonas aeruginosa. The protocol:
as §1, §2

For `CC[C@H](C)[C@H](NC(=O)[C@H](CCCNC(=N)N)NC(=O)CNC(=O)[C@@H](CC(C)C)NC(=O)[C@@H]1CCC(=O)NCCCC[C@H](NC(=O)[C@@H]2CCCN2C(=O)[C@@H](NC(=O)[C@@H](N)Cc2ccccc2)C(C)C)C(=O)N[C@@H](Cc2ccccc2)C(=O)N[C@@H](CO)C(=O)N[C@@H](CCCCN)C(=O)N1)C(=O)N[C@@H](CC(C)C)C(N)=O` [compound 14] (H-FVPKFSKE[dL]GRIL-NH2; lactam 4-8), in test [1], the “MIC A. baumannii ATCC 19606” value was above 100 µM. Further, the “MIC S. epidermidis ATCC 12228” value in test [2] was above 100 µM. Besides, the “MIC E. coli ATCC 25922” value in test [3] was above 100 µM. The “MIC S. aureus ATCC 25923” value in test [4] was above 100 µM. Also, the “MIC B. megaterium Bm11” value in test [5] is above 100 µM. Moreover, the “MIC P. aeruginosa ATCC 27853” value in test [6] is above 100 µM.
On to `CC[C@H](C)[C@H](NC(=O)[C@H](CCCNC(=N)N)NC(=O)CNC(=O)[C@H]1CCCCn2cc(nn2)C[C@H](NC(=O)[C@H](Cc2c[nH]c3ccccc23)NC(=O)[C@@H]2CCCN2C(=O)[C@@H](NC(=O)[C@@H](N)Cc2ccccc2)C(C)C)C(=O)N[C@@H](CO)C(=O)N[C@@H](CCCCN)C(=O)N[C@@H](Cc2ccccc2)C(=O)N1)C(=O)N[C@@H](CC(C)C)C(N)=O` [compound 18] (H-FVPW[Pra]SKF[dLys(N3)]GRIL-NH2; triazole 5-9), for which the “MIC A. baumannii ATCC 19606” value in test [1] was 100 µM (≈ 160 µg/mL). The “MIC S. epidermidis ATCC 12228” value in test [2] is above 100 µM. For the same compound, the “MIC E. coli ATCC 25922” value in test [3] was found to be 100 µM (≈ 160 µg/mL). The “MIC S. aureus ATCC 25923” value in test [4] was above 100 µM. Further, in test [5], the “MIC B. megaterium Bm11” value was determined as 6.25 µM (≈ 9.99 µg/mL). The “MIC P. aeruginosa ATCC 27853” value in test [6] was above 100 µM.
`CC[C@H](C)[C@@H]1NC(=O)[C@H](CCCNC(=N)N)NC(=O)CNC(=O)[C@@H](CC(C)C)NC(=O)[C@H](Cc2ccccc2)NC(=O)[C@H](CCCCN)NC(=O)[C@@H](NC(=O)[C@H](Cc2ccccc2)NC(=O)[C@H](Cc2c[nH]c3ccccc23)NC(=O)[C@@H]2CCCN2C(=O)[C@@H](NC(=O)[C@@H](N)Cc2ccccc2)C(C)C)CCCCNC(=O)CC[C@@H](C(N)=O)NC1=O` [compound 20] (H-FVPWFKKF[dL]GRIE-NH2; lactam 6-13): the “MIC A. baumannii ATCC 19606” value in test [1] was above 100 µM. For the same compound, in test [2], the “MIC S. epidermidis ATCC 12228” value was above 100 µM. In addition, in test [3], the “MIC E. coli ATCC 25922” value was above 100 µM. Also, the “MIC S. aureus ATCC 25923” value in test [4] is above 100 µM. Further, in test [5], the “MIC B. megaterium Bm11” value was 12.5 µM (≈ 20.6 µg/mL). The “MIC P. aeruginosa ATCC 27853” value in test [6] is above 100 µM.
On to `CC[C@H](C)[C@H](NC(=O)[C@H](CCCNC(=N)N)NC(=O)CNC(=O)[C@@H](CC(C)C)NC(=O)[C@@H]1CCCCn2cc(nn2)C[C@H](NC(=O)[C@@H]2CCCN2C(=O)[C@@H](NC(=O)[C@@H](N)Cc2ccccc2)C(C)C)C(=O)N[C@@H](Cc2ccccc2)C(=O)N[C@@H](CO)C(=O)N[C@@H](CCCCN)C(=O)N1)C(=O)N[C@@H](CC(C)C)C(N)=O` [compound 19] (H-FVP[Pra]FSK[Lys(N3)][dL]GRIL-NH2; triazole 4-8), for which the “MIC A. baumannii ATCC 19606” value in test [1] was above 100 µM. Moreover, the “MIC S. epidermidis ATCC 12228” value in test [2] is above 100 µM. Further, in test [3], the “MIC E. coli ATCC 25922” value was above 100 µM. The “MIC S. aureus ATCC 25923” value in test [4] was above 100 µM. Further, in test [5], the “MIC B. megaterium Bm11” value amounted to 12.5 µM (≈ 19.1 µg/mL). Moreover, the “MIC P. aeruginosa ATCC 27853” value in test [6] is above 100 µM.
With `CC(C)C[C@H](NC(=O)[C@@H]1CCCCn2cc(nn2)C[C@H](NC(=O)[C@H](CCCCN)NC(=O)[C@H](CO)NC(=O)[C@H](Cc2ccccc2)NC(=O)[C@H](Cc2c[nH]c3ccccc23)NC(=O)[C@@H]2CCCN2C(=O)[C@@H](NC(=O)[C@@H](N)Cc2ccccc2)C(C)C)C(=O)N[C@H](CC(C)C)C(=O)NCC(=O)N[C@@H](CCCNC(=N)N)C(=O)N1)C(N)=O` [compound 16] (H-FVPWFSK[Pra][dL]GR[Lys(N3)]L-NH2; triazole 8-12), in test [1], the “MIC A. baumannii ATCC 19606” value worked out at 25 µM (≈ 39.9 µg/mL). Besides, the “MIC S. epidermidis ATCC 12228” value in test [2] is above 100 µM. Besides, the “MIC E. coli ATCC 25922” value in test [3] amounted to 50 µM (≈ 79.9 µg/mL). The “MIC S. aureus ATCC 25923” value in test [4] was above 100 µM. The “MIC B. megaterium Bm11” value in test [5] stood at 25 µM (≈ 39.9 µg/mL). The “MIC P. aeruginosa ATCC 27853” value in test [6] was above 100 µM.
Turning to `CC(C)C[C@H](NC(=O)[C@@H]1CCC(=O)NCCCC[C@H](NC(=O)[C@H](Cc2c[nH]c3ccccc23)NC(=O)[C@@H]2CCCN2C(=O)[C@@H](NC(=O)[C@@H](N)Cc2ccccc2)C(C)C)C(=O)N[C@@H](CO)C(=O)N[C@@H](CCCCN)C(=O)N[C@@H](Cc2ccccc2)C(=O)N[C@H](CC(C)C)C(=O)NCC(=O)N[C@@H](CCCNC(=N)N)C(=O)N1)C(N)=O` [compound 21] (H-FVPWKSKF[dL]GREL-NH2; lactam 5-12), the “MIC A. baumannii ATCC 19606” value in test [1] is above 100 µM. Further, the “MIC S. epidermidis ATCC 12228” value in test [2] was above 100 µM. The “MIC E. coli ATCC 25922” value in test [3] is above 100 µM. Besides, in test [4], the “MIC S. aureus ATCC 25923” value is above 100 µM. For the same compound, the “MIC B. megaterium Bm11” value in test [5] stood at 100 µM (≈ 159 µg/mL). Besides, the “MIC P. aeruginosa ATCC 27853” value in test [6] was above 100 µM.
For `CC[C@H](C)[C@@H]1NC(=O)[C@H](CCCNC(=N)N)NC(=O)CNC(=O)[C@@H](CC(C)C)NC(=O)[C@H](Cc2ccccc2)NC(=O)[C@H](CCCCN)NC(=O)[C@@H](NC(=O)[C@H](Cc2ccccc2)NC(=O)[C@H](Cc2c[nH]c3ccccc23)NC(=O)[C@@H]2CCCN2C(=O)[C@@H](NC(=O)[C@@H](N)Cc2ccccc2)C(C)C)Cc2cn(nn2)CCCC[C@@H](C(N)=O)NC1=O` [compound 22] (H-FVPWF[Pra]KF[dL]GRI[Lys(N3)]-NH2; triazole 6-13), the “MIC A. baumannii ATCC 19606” value in test [1] is 100 µM (≈ 166 µg/mL). Moreover, in test [2], the “MIC S. epidermidis ATCC 12228” value is above 100 µM. Besides, in test [3], the “MIC E. coli ATCC 25922” value was above 100 µM. Moreover, the “MIC S. aureus ATCC 25923” value in test [4] is above 100 µM. Moreover, in test [5], the “MIC B. megaterium Bm11” value was 12.5 µM (≈ 20.7 µg/mL). Moreover, the “MIC P. aeruginosa ATCC 27853” value in test [6] is above 100 µM.
In the case of `CC[C@H](C)[C@H](NC(=O)[C@H](CCCNC(=N)N)NC(=O)CNC(=O)[C@H]1CCC(=O)NCCCC[C@H](NC(=O)[C@H](Cc2c[nH]c3ccccc23)NC(=O)[C@@H]2CCCN2C(=O)[C@@H](NC(=O)[C@@H](N)Cc2ccccc2)C(C)C)C(=O)N[C@@H](CO)C(=O)N[C@@H](CCCCN)C(=O)N[C@@H](Cc2ccccc2)C(=O)N1)C(=O)N[C@@H](CC(C)C)C(N)=O` [compound 13] (H-FVPWKSKF[dE]GRIL-NH2; lactam 5-9), in test [1], the “MIC A. baumannii ATCC 19606” value is above 100 µM. Moreover, the “MIC S. epidermidis ATCC 12228” value in test [2] was above 100 µM. Also, the “MIC E. coli ATCC 25922” value in test [3] was above 100 µM. For the same compound, in test [4], the “MIC S. aureus ATCC 25923” value is above 100 µM. The “MIC B. megaterium Bm11” value in test [5] amounted to 100 µM (≈ 159 µg/mL). For the same compound, the “MIC P. aeruginosa ATCC 27853” value in test [6] is above 100 µM.
As for `CC[C@H](C)[C@@H]1NC(=O)[C@H](CCCNC(=N)N)NC(=O)CNC(=O)[C@H](NC(=O)[C@H](Cc2ccccc2)NC(=O)[C@H](CCCCN)NC(=O)[C@H](CO)NC(=O)[C@H](Cc2ccccc2)NC(=O)[C@H](Cc2c[nH]c3ccccc23)NC(=O)[C@@H]2CCCN2C(=O)[C@@H](NC(=O)[C@@H](N)Cc2ccccc2)C(C)C)Cc2cn(nn2)CCCC[C@@H](C(N)=O)NC1=O` [compound 15] (H-FVPWFSKF[dPra]GRI[Lys(N3)]-NH2; triazole 9-13), the “MIC A. baumannii ATCC 19606” value in test [1] amounted to 100 µM (≈ 163 µg/mL). In addition, the “MIC S. epidermidis ATCC 12228” value in test [2] is above 100 µM. Besides, the “MIC E. coli ATCC 25922” value in test [3] is above 100 µM. In addition, in test [4], the “MIC S. aureus ATCC 25923” value is above 100 µM. Also, the “MIC B. megaterium Bm11” value in test [5] came out at 25 µM (≈ 40.8 µg/mL). In addition, the “MIC P. aeruginosa ATCC 27853” value in test [6] is above 100 µM.
